From US20030171382A1, “Pharmaceutical composition for regeneration of cirrhotic liver” (priority 2002, published 2003)
Where two headings read alike, the source gives them in different places. Marks after values point to notes of the source that are not given here.

Columns and labels:
[1] = system: rats with cirrhosis; details: cirrhotic rats, 30 mg/kg, 3 times a week for 4 weeks; without oltipraz 48% after 4 weeks
From the text: (§1) Sprague-Dawley rats that were 6 weeks old and 140-160 g were used in the examples below.
(§2) By continually administering rats with dimethylnitrosamine (DMN) 3 times a week for 4 weeks, test models of cirrhotic livers were achieved. At such time, the rats showing only indications of liver fibrosis were placed in a separate group from rats showing indications of cirrhosis, and the survival rates of rats with cirrhosis and rats with liver fibrosis were studied during the next 4 weeks.

[2] = system: rats with liver fibrosis; details: 30 mg/kg 3 times a week
From the text: as §1, §2

[3] = system: rats with cirrhosis; details: 3 times a week for 4 weeks; for Fibrosis Scores / Knodell Scores: group with cirrhosis; for Fibrosis Scores: scale 0-4, untreated 3.8 ± 0.2; for Knodell Scores: untreated 14.0 ± 0.8
From the text: as §1, §2
The histopathological effect of oltipraz on cirrhosis was studied.
(§3) The curative effect of oltipraz on liver cirrhosis was histopathologically determined through fibrosis scores taken after Masson's trichrome staining and through Knodell scores which show the portal inflammation and the extent of fibrosis of the liver (FIG. 2, Table 1).
(§4) Each value is represented by the average ± standard deviation. The number of animals used was 5 to 10. The significance of each group is determined by the paired Student's t-test. The significance is indicated by * p<0.05, ** p<0.01 compared to rats with cirrhosis or liver fibrosis. […] Degree of fibrosis 0=Normal, 1=Presence of weak fibrous tissue, 2=Presence of moderate fibrous tissue, 3=Presence of obvious fibrous tissue, 4=Evidence of severe fibrosis. Sum of values from periportal bridging (Greatest=10), intralobular cell loss (Greatest=4), portal inflammation (Greatest=4), and fibrosis (Greatest=4) yields the Knodell score.

[4] = system: rats with liver fibrosis; details: group with fibrosis; for Fibrosis Scores: scale 0-4, untreated 2.2 ± 0.5; for Knodell Scores: untreated 6.0 ± 1.2
From the text: as §1, §2, §3, §4

[5] = system: rats with cirrhosis; details: for ALT in blood plasma / AST in blood plasma / Bilirubin in blood plasma / Cholesterol in blood plasma: group with cirrhosis; for ALT in blood plasma: untreated 138 ± 14, control 55 ± 4; for AST in blood plasma: untreated 275 ± 36, control 141 ± 18; for Bilirubin in blood plasma: untreated 2.7 ± 0.8, control 1.1 ± 0.1; for Cholesterol in blood plasma: untreated 152 ± 30, control 97 ± 6
Protocol: as §1
When the rats were administered with 15 mg/kg of oltipraz, 3 times a week for 4 weeks, the ALT and AST activity in the blood plasma was reduced, and when administered with 30 mg/kg, approximately 70% of the AST value lowered, showing a statistical significance (Table 2).
The amount of bilirubin in blood plasma is an indicator of the liver's capacity.
Each value is represented by the average ± standard deviation. The number of animals used was 8 to 11. The significance of each group is determined by the paired Student's t-test. The significance is indicated by * p<0.05, compared to control and # p<0.05 compared to rats with cirrhosis.

[6] = system: cirrhotic rats; details: index 0-3, untreated 1.7
From the text: as §1
Another representative clinical symptom of cirrhosis is the accumulation of ascites. […] The significance is indicated by ** p<0.01, compared to control and # p<0.05 compared to rats with cirrhosis.

[7] = system: cirrhotic rats; details: 30 mg/kg, 3 times a week for 4 weeks
From the text: as §1
Ascites are formed when the synthesis of the blood plasma protein (especially albumin) is reduced in the liver tissues, bringing a disturbance in maintaining the equilibrium of the osmotic pressure in the blood. […] The significance is indicated by ** p<0.01, compared to control and # p<0.05 compared to rats with cirrhosis.

[8] = system: cirrhotic rats; details: 3 times a week for 4 weeks, untreated approximately 56% of normal
From the text: as §1
Cirrhosis is not only responsible for diminishing of a liver's function, but also for atrophy of the liver tissues. […] Since weight loss accompanies cirrhosis, in order to standardize the test results, the weight of the brain, which is normally not affected by cirrhosis, was used as the comparative weight to obtain the changes in the weights. The significance is indicated by ** p<0.01, compared to control and # p<0.05 compared to rats with cirrhosis.

[9] = system: cirrhotic rats; details: 30 mg/kg, 3 times a week for 4 weeks; remark: listed apart in the source
From the text: as §1
The left side of FIG. 4b is a photograph of liver tissue, obtained after administration of oltipraz to cirrhotic rats, taken following Masson's trichrome staining.

[10] = system: Thy1.1 and Flt-3; details: cirrhotic rats, 30 mg/kg, 3 times a week for 4 weeks; compared to untreated cirrhotic rats
From the text: The cells, which regenerate to liver tissues, are known to originate from stem cells.

[11] = system: c-Met; details: cirrhotic rats, 30 mg/kg, 3 times a week for 4 weeks; versus un-administered rats
From the text: c-Met is a Hepatocyte Growth Factor (HGF) receptor, applicable in proliferation and differentiation of the liver cells. […] When c-Met is not appropriately present, even with the presence of HGF, liver tissues will not form.

[12] = system: C/EBP-β and C/EBP-α; details: cirrhotic rats, 30 mg/kg, 3 times a week for 4 weeks
Protocol: With the importance of C/EBP in the regulation of liver regeneration in mind, the expression of C/EBP-β and C/EBP-α in oltipraz administered (30 mg/kg, 3 times a week for 4 weeks) cirrhotic rats were examined.

[13] = system: C/EBP-β; details: rat hepatocytes, 30 μM for 6 hours
Protocol: Afterwards, to study whether oltipraz promotes translocation of C/EBP-β to the nucleus, rat hepatocytes were incubated with oltipraz at the concentration of 30 μM for 6 hours.

[14] = system: PCNA; details: cirrhotic rats, 30 mg/kg, 3 times a week for 4 weeks; compared to cirrhotic rat without oltipraz
Protocol: PCNA immunochemical analysis is done with a specific antibody for PCNA (Santa Cruz Biotech). Analysis was carried out by indirect Avidin-Biotin-Alkaline-Phosphatase technique, according to the protocol provided by the manufacturer (InnoGenex). […] By using blocking serum, nonspecific antibody bindings were prevented. Then, in a humidified chamber, the slices were incubated with antibodies for 30 minutes at room temperature. After the incubation, Phosphate Buffered Saline (PBS) with 0.1% Tween-20 was used to rinse the slides. The slices were subjected to biotinylated 2nd antibodies and reacted for 5 minutes at 37° C. followed by additional reaction for 5 minutes at 37° C. with streptavidin-conjugated alkaline phosphatase added. Then, 5-bromo-4-chloro-3-indolyl-phosphate (BCIP) and nitro-blue-tetrazolium (NBT) were used as the phosphatase substrate to be incubated with the slices on the slide until proper colors became visible. Afterwards, the slices were again stained with nuclear fast red.

[15] = system: PCNA; details: cirrhotic rats, 30 mg/kg, 3 times a week for 4 weeks; versus control or untreated cirrhotic rats
Protocol: Nuclear fractions of the liver from the control rats, cirrhotic rats and oltipraz administered (30 mg/kg, 3 times a week for 4 weeks) cirrhotic rats were dissolved in a diluting solution containing sodium dodecyl sulfate (SDS) to form a sample and stored at −70° C. After SDS-polyacrylamide gel electrophoresis, immunoblot analysis was carried out. The sample was fractionated by using 12% gel electrophoresis and electrically transferred to nitrocellulose membrane. The nitrocellulose membrane was incubated with polyclonal mouse anti-PCNA antibody (1:1000) (Santa Cruz Biotech) and then incubated again with horseradish peroxidase-conjugated secondary antibody. Lastly, ECL chemiluminescence kit manufactured by Amersham company was used to develop the band.

[16] = system: C/EBP-β and C/EBP-α; details: primary cultured hepatocytes, 30 μM
[17] = system: C/EBP; details: hepatocytes isolated from cirrhotic rats incubated with oltipraz
[18] = 15 mg/kg, 3 times a week for 4 weeks, 15 mg/kg
[19] = 15 mg/kg, 3 times a week for 4 weeks, listed as oltipraz, 15 mg/kg

Cc1c(-c2cnccn2)ssc1=S [Oltipraz, 5-(2-pyrazinyl)-4-methyl-1,2-dithiol-3-thione]
survival rate [1]: 83%
death of rats [2]: no death
accumulation of fibers in liver tissue ([3]; cirrhotic rats, 15 or 30 mg/kg): reduced in a dose-dependent manner
Fibrosis Scores ([3]; 15 mg/kg): 2.9 ± 0.4
Knodell Scores ([3]; 15 mg/kg): 8.7 ± 1.1**
Fibrosis Scores ([3]; 30 mg/kg): 2.8 ± 1.1*
Knodell Scores ([3]; 30 mg/kg): 6.8 ± 2.5**
Fibrosis Scores ([4]; 15 mg/kg): 2.8 ± 0.4
Knodell Scores ([4]; 15 mg/kg): 7.0 ± 1.2
Fibrosis Scores ([4]; 30 mg/kg): 1.0 ± 0.0**
Knodell Scores ([4]; 30 mg/kg): 2.6 ± 0.4*
total cholesterol level in blood plasma ([5]; cirrhotic rats treated with oltipraz (dose not given)): did not show noticeable change
AST value lowered ([5]; cirrhotic rats, 30 mg/kg): approximately 70%
amount of bilirubin in blood plasma ([5]; cirrhotic rats, oltipraz administration (dose not given)): tended to be reduced
ALT in blood plasma [5, 18]: 124 ± 47
ALT in blood plasma [5, 19]: reduced
AST in blood plasma [5, 18]: 206 ± 24
AST in blood plasma [5, 19]: reduced
Bilirubin in blood plasma ([5]; 15 mg/kg): 1.8 ± 0.4
Cholesterol in blood plasma ([5]; 15 mg/kg): 116 ± 9
Bilirubin in blood plasma ([5]; 30 mg/kg): 1.4 ± 0.2
ALT in blood plasma ([5]; 30 mg/kg): 110 ± 39
Cholesterol in blood plasma ([5]; 30 mg/kg): 104 ± 7
AST in blood plasma ([5]; 30 mg/kg): 185 ± 22^#
ascites formation index ([6]; 15 mg/kg): 0.9
ascites formation index ([6]; 30 mg/kg): 0.4
amount of albumin in the blood plasma [7]: normal albumin content was recovered
liver weights ([8]; 15 mg/kg): recovered almost to the normal weights
liver weights ([8]; 30 mg/kg): recovered almost to the normal weights
division of the liver cells [9]: clearly shows the dividing cells
number of cells containing Thy1.1 and Flt-3 [10]: considerable decline
expression of c-Met [11]: noticeably greater
appearance of liver-enriched inhibitory protein (LIP) [12]: almost completely disappeared
expression of C/EBP-α [12]: noticeably recovered
expression of C/EBP-β [12]: increased
translocation of C/EBP-β to the nucleus [13]: clearly promoted translocation
occurrence of PCNA (cells with PCNA) [14]: approximately twice more frequent
expression of PCNA (36 kDa band intensity) [15]: significant increase in the expression of PCNA
amount of C/EBP-α in the nucleus of the liver cells [16]: gradually increased
amount of C/EBP-β in the nucleus of the liver cells [16]: gradually increased
amount of C/EBP in the nucleus [17]: no significant change was observed
